Measured values reported in PubChem BioAssay (NCI).
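A five-concentration, 48-hour dose response in 96-well plates underlies each endpoint, interpolated linearly between surrounding concentrations. Here, GI50 denotes the concentration required for 50% inhibition of growth. TGI: concentration producing complete growth inhibition.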

What was measured:
Assay in all cases: growth of human tumour cells (NCI), 48 h
HCT-15 colon = tested on: HCT-15 colon
HL-60(TB) leukemia = tested on: HL-60(TB) leukemia
HOP-62 NSCLC = tested on: HOP-62 NSCLC
HT29 colon = tested on: HT29 colon
NCI/ADR-RES ovarian = tested on: NCI/ADR-RES ovarian
OVCAR-3 ovarian = tested on: OVCAR-3 ovarian
OVCAR-5 ovarian = tested on: OVCAR-5 ovarian
SNB-75 CNS = tested on: SNB-75 CNS
SW-620 colon = tested on: SW-620 colon
U251 CNS = tested on: U251 CNS

Structure (SMILES) | GI50 (HCT-15 colon) [µM] | TGI (HCT-15 colon) [µM] | GI50 (HL-60(TB) leukemia) [µM] | TGI (HL-60(TB) leukemia) [µM] | GI50 (HOP-62 NSCLC) [µM] | TGI (HOP-62 NSCLC) [µM] | GI50 (HT29 colon) [µM] | TGI (HT29 colon) [µM] | GI50 (NCI/ADR-RES ovarian) [µM] | TGI (NCI/ADR-RES ovarian) [µM] | GI50 (OVCAR-3 ovarian) [µM] | TGI (OVCAR-3 ovarian) [µM] | GI50 (OVCAR-5 ovarian) [µM] | TGI (OVCAR-5 ovarian) [µM] | GI50 (SNB-75 CNS) [µM] | TGI (SNB-75 CNS) [µM] | GI50 (SW-620 colon) [µM] | TGI (SW-620 colon) [µM] | GI50 (U251 CNS) [µM] | TGI (U251 CNS) [µM]
COc1cc2c(=O)n(CCN)c3c4cc5c(cc4ccc3c2cc1OC)OCO5 | 0.651 | 2.19 | 1.24 | 3.53 | 0.444 | 2.27 | 0.222 | 1.65 | 1.26 | 3.6 | 0.919 | 2.26 | 1.16 | 2.59 | 0.892 | 3.35 | 0.23 | 2.07 | 0.287 | 1.75
CC(CCC(=O)O)C(=O)O (centres undefined) |  | > 100 |  | > 100 |  | > 100 |  | > 100 |  | > 100 |  | > 100 |  | > 100 |  | > 100 |  | > 100 |  | > 100
Nc1ccc(C(=O)CC(N)C(=O)O)cc1O (centres undefined) |  | > 100 |  | > 100 |  | > 100 |  | > 100 |  | > 100 |  | > 100 |  | > 100 |  | > 100 |  | > 100 |  | > 100
CCOc1cccc(/C=N/NC(=O)C(=O)Nc2cccc(C(F)(F)F)c2)c1O | 0.459 | > 100 | 0.89 | 4.45 | 3.1 | 53.6 | 6.51 | > 100 | 2.02 | 37.1 | 0.407 | > 100 | 5.67 | > 100 | 5.38 | 57.8 | 3.09 | > 100 | 1.46 | > 100
COc1ccc(Cn2cc3c(c2)-c2oncc2CC3)cc1 | 4.33 | > 70.6 | 1.72 | 8.26 | 9.64 | > 100 | 3.69 | > 64.8 | 2.86 | 9.85 | 2.61 | 6.51 | 8.6 | > 100 | 2.95 | 40.5 | 2.8 | > 100 | 4.43 | > 92
COc1cc(C(=O)Nc2cc3c(cc2Oc2cc(C)cc(C)c2)C(=O)N(C)[C@@H](CC(=O)N(C)O)C(=O)N3)c(Br)c(OC)c1OC | 0.144 | 2.04 | < 0.00333 | < 0.00333 | < 0.00333 | 0.00372 | < 0.00333 | < 0.00333 | 0.777 | 7.34 | < 0.00333 | < 0.00333 | < 0.00333 | 0.00751 | < 0.00333 | < 0.00333 | < 0.00333 | 0.0149 | < 0.00333 | 0.00506
O=C(O)C1CCCCC1C(=O)O.[NH-]C1CCC1.[NH2-].[Pt+2] (centres undefined) | 17.3 | 34.5 | 5.98 | 52.8 | 77 | > 100 | 17.2 | 35.3 | 33.8 | > 100 | 15.8 | 30.4 | 18.3 | 34 | 84.6 | > 100 | 14.4 | 44.5 | 58 | > 100
Nc1ccccc1C#C/C=C\C#Cc1ccccc1[N+](=O)[O-] | 0.718 | 21.7 | 1.96 | 60.7 | 17.5 | 48.6 |  |  | 1.23 | 6.47 | 4.03 | 37 | 17.4 | 33.6 | 13.3 | 58.3 | 0.942 | 88.8 | 3.72 | 18.9
C=C1C(=O)O[C@H]2[C@H]1CC/C(COC(=O)c1cc3cc(Cl)ccc3[nH]1)=C\CC[C@@]1(C)O[C@@H]21 | 1 | 2.43 | 0.44 | 2.3 | 2.22 | 5.88 | 1.33 | 3.12 | 1.45 | 3.78 | 1.25 | 2.7 | 1.53 | 3.28 | 0.576 | 2.07 | 1.4 | 3.37 | 1.75 | 3.32
OCCNc1ncnc2c1ncn2Cc1cccc(COc2cccc(OCc3cccc(Cn4cnc5c(NCCO)ncnc54)c3)c2)c1 | 30.9 | > 100 | 10.6 | 29.3 |  |  | 4.05 | 16.5 | > 100 | > 100 | 17.6 | 36.7 | 20.2 | 36.8 | 12.3 | 27.4 | 11.8 | 24.9 | 12.3 | 24.7
CC1C(=O)OCC2=CCN3CCC(OC(=O)C(C)C1(C)O)C23 (centres undefined) |  | > 100 |  | > 100 |  |  |  | > 100 |  | > 100 |  | > 100 |  | > 100 |  | > 100 |  | > 100 |  | > 100
COc1ccc(-c2ccc(-c3ccc(C(=N)N)cn3)o2)cc1 | 4.62 | 17.7 | 2.14 | 5.7 | 10.5 | 22.6 | 3.4 | 11.1 | 14.1 | 30.7 | 8.9 | 21.6 | 10.9 | 23.7 | 10.5 | 22.5 | 4.05 | 16 | 4.7 | 17.4
Cn1c2c(c3ccc(Cl)c(Cl)c31)C(C#N)C1(CCNCC1)NC2=O (centres undefined) | 2.4 | 7.88 | 1.96 | 3.91 | 1.47 | 3.93 | 2.02 |  | 3.72 | 12.2 | 1.42 | 2.9 | 1.49 | 4.68 | 1.14 | 4.72 | 1.65 | 3.26 | 2.94 | 10.7
CCOC(=O)/C=C/C1=C(c2cccs2)c2ccccc2CC1 | 16.5 | 34 | 45 | > 100 | 38 | > 100 | 24.4 | 65.3 | 21.1 | 55.9 | 29.5 | > 100 | 35.9 | > 100 | 25.5 | 82.5 | 31.1 | > 100 | 19.7 | 39.6
